# Results as given in patent US9566261B2 (priority 2013, dated 2017).
# Tested on: lithium-pilocarpine treated rats
# Experiment: Morris water maze using pilocarpine-induced status epilepticus (SE)
# Assay type: in vivo
# Source text: To assess spatial memory and learning in lithium-pilocarpine treated animals and to identify novel compounds that might ameliorate cognitive deficits and neuronal loss associated with pilocarpine-induced status epilepticus (SE). Morris water maze has been used extensively in the study of learning and memory. This test uses a round pool of water in which an escape platform is submerged beneath the surface. The task is to find the hidden platform using only extra maze visual cues (Morris, 1984). Learning can be assessed by quantifying the time that an animal takes to find the platform (latency) over a number of independent trials. […]
# Twenty four hours prior to pilocarpine administration, rats were weighed and given lithium chloride (127 mg/kg; i.p.). On the next day, they received pilocarpine hydrochloride (50 mg/kg; i.p.) and were monitored carefully for behavioral seizures. […] All animals were observed and scored for seizure severity for an additional 1.5 hr. […] In our spatial learning protocol rats, received 4 training trials per day wherein the outcome measure evaluated was their ability to find the hidden platform. […] On each of the trials, rats were placed in the water facing the wall at one of the 4 randomly determined starting locations (north, west, east or south) and allowed 120 sec to find the platform. […]
structure (smiles),measurement,setting,value
"C[C@H](OC(N)=O)[C@@H](O)c1ccccc1Cl [Compound 1, 1-(2-chlorophenyl)-(S)-1-hydroxypropyl-(S)-2-carbamate]",average time to find the escape platform (latency),"65 mg/kg i.p. 15 minutes after the first stage 3 seizure, vs pilocarpine alone group, FIG. 3",significant difference in the Pilo+Compound 1 group as compared to the pilocarpine alone group
same,mortality,125 mg/kg administered 30 min after the first convulsive seizure,death of all animals
